Assay results taken from patent US12414958B2, “Medicament and use thereof for treating bacterial infections involving biofilm” (Debiopharm International S.A., priority 2019, dated 2025).
Values joined by “and” are separate entries in the source; they are usually repeats but may differ in a detail not shown here. Identical values can stand only once.

System: S. aureus ATCC 43300 (MRSA)
Assay: Mouse tissue cage model of MRSA infection, 5.5-day treatment (Example 2)
Format: in vivo, Staphylococcus aureus
Conditions: for Cure rate (%) / adherent bacteria reduction from baseline (mean±SD): 24-h biofilm; for Cure rate (%) / Planktonic day 3 Δlog (individual animal) / adherent bacteria reduction from baseline (mean±SD): 5.5-day treatment; for Cure rate (%): cages without growth / total cages; for Adherent Mean / Adherent Δlog (individual animal): medium after sonication of explanted tissue cages, day 9 vs day 1; for Adherent Mean: group mean; for day on which bactericidal effect (mean reduction of bacterial load by ≥3 Log10) on planktonic bacteria was exerted: planktonic bacteria in tissue cage fluid, time points day 3, 6, 9; for Planktonic day 3 Mean / Planktonic day 6 Mean / Planktonic day 9 Mean / Planktonic day 3 Δlog (individual animal) / Planktonic day 9 Δlog (individual animal) / Planktonic day 6 Δlog (individual animal): tissue cage fluid; for Planktonic day 3 Mean / Planktonic day 6 Mean / Planktonic day 9 Mean: group mean Δlog from baseline (day 1); for Planktonic day 3 Δlog (individual animal) / Planktonic day 9 Δlog (individual animal) / Planktonic day 6 Δlog (individual animal): reduction from baseline (day 1); for Planktonic day 3 Δlog (individual animal): C57BL/6 mice; for Planktonic day 9 Δlog (individual animal): 3 days after end of treatment; for adherent bacteria reduction from baseline (mean±SD): n=3, given as positive reduction
Text: The purpose of this study was to evaluate the efficacy of Debio 1450 BES alone and in combination with Daptomycin (DAP) in the mouse tissue cage model of implant-associated infections caused by methicillin resistant Staphylococcus (S.) aureus (MRSA). The efficacy against 24-h biofilm of S. aureus ATCC 43300 (MRSA) was investigated and compared to the standard of care combination of rifampicin (RIF) and DAP at the human equivalent doses. Employing a small initial inoculum (ca. 300 CFU/cage) together with a 24-h biofilm allowed to simulate clinical settings of an acute implant infection and/or surgical debridement.
The tissue cage model of prosthetic joint infections is very well-established and closely mimics the human prosthetic joint infections. This model is based on subcutaneous insertion of tissue cages followed by experimental infection of the foreign body by injection of bacterial inoculum into the cages.
In brief, one sterile polytetrafluorethylene (Teflon) cylinder (32×10 mm), perforated by 130 regularly spaced holes of 1 mm diameter (tissue cages; Angst-Pfister AG, Zürich) was aseptically implanted subcutaneously into the back of C57BL/6 mice (minimum weight 20 g). Experiments were started after complete wound healing (minimum 2 weeks after surgery). For the efficacy study presented here the cages in all animals were infected with around 300 colony-forming units (CFU) of the MRSA strain ATCC 43300 per cage and the biofilm were developed for 24 h before the beginning of the treatment.
The animals received antibiotic treatment i.p. (Debio 1450 BES and DAP) or sc (RIF) on day 1, 2, 3, 4, 5, and 6 (only the morning administration on day 6). One group received only 5% glucose and served as infected, untreated control group (vehicle). […] Debio 1450 and vehicle were administered bid, and qdam on day 6. DAP and RIF were administered qdam. The 50 mg/kg dose of Debio 1450 BES was selected as the HED. The DAP dose of […] was chosen as it closely correlates with the human clinical dosage of 10 mg/kg once daily. The RIF dose of 25 mg/kg is among the most commonly used in the treatment of experimental biofilm infections.
Five to 6 days before infection, TCF is aspirated to ascertain the sterility of implanted cages by TCF plating on blood agar plates. […] In addition, the number of bacteria in TCF was determined on day 3 (before the first injection that day), on day 6 (before last treatment), and on day 9 (before explantation of the cages) to evaluate the treatment efficacy against planktonic bacteria. The mouse number and bacterial count for the given cage were reported to analyse the time course of antibacterial activity of the tested drugs. The efficacy against biofilm-embedded bacteria was assessed qualitatively and quantitatively following aseptic explantation of the tissue cages 3 days after the completion of treatment. The 3 days of resting period will help to avoid the antibiotic carryover effect. Upon explantation, cages were washed twice with phosphate buffered saline (PBS) (Lot #5060914) and immediately transferred into 5 mL 0.9% NaCl (Lot #L161619 or L162658). Following 30 s vortexing, sonication (3 min at 130 W), and an additional 30 s vortexing step the numbers of bacteria dispersed from biofilm was determined by plating. The sonicated cages were washed once with PBS, transferred into 5 mL TSB (Lot #0286463), and incubated for 48 h at 37° C., with an additional vortexing step after 24 h of incubation. After the incubation, tubes were vortexed again and bacterial regrowth was assessed visually. In addition, 100 μL of each culture was plated on blood agar plates to ascertain the regrowth. A positive culture was defined as a treatment failure. The efficacy of treatment against adherent bacteria is expressed as the cure rate (in percent), defined as the number of cages without growth divided by the total number of cages in the individual treatment group.

For `CCCCCCCCCC(=O)N[C@@H](Cc1c[nH]c2ccccc12)C(=O)N[C@H](CC(N)=O)C(=O)N[C@@H](CC(=O)O)C(=O)N[C@@H]1C(=O)NCC(=O)N[C@@H](CCCN)C(=O)N[C@@H](CC(=O)O)C(=O)N[C@H](C)C(=O)N[C@@H](CC(=O)O)C(=O)NCC(=O)N[C@H](CO)C(=O)N[C@@H]([C@H](C)CC(=O)O)C(=O)N[C@@H](CC(=O)c2ccccc2N)C(=O)O[C@@H]1C` [Daptomycin], which “Cure rate (%)” value is on record?
Its value is 33%.

And the “Adherent Mean” value?
The value was −3.91 log 10 CFU/mL.

What about the “Adherent Δlog (individual animal)” value (listed as DAP) of the same molecule?
The value was −4.48 log 10 CFU/mL (2×) and −2.78 log 10 CFU/mL.

What about the “day on which bactericidal effect (mean reduction of bacterial load by ≥3 Log10) on planktonic bacteria was exerted” value of the same molecule?
The value was 3 day.

And the “Planktonic day 3 Mean” value?
Its value is −3.10 Log10.

And the “Planktonic day 6 Mean” value?
The value was −4.91 Log10.

What about the “Planktonic day 9 Mean” value of the same molecule?
Its value is −3.60 Log10.

And the “Planktonic day 3 Δlog (individual animal)” value (listed as DAP)?
Its value is −2.41 Log10 and −4.79 Log10 and −0.67 Log10 and −5.15 Log10 and −2.91 Log10 and −2.70 Log10.

What about the “Planktonic day 9 Δlog (individual animal)” value (listed as DAP) of the same molecule?
The value was −1.07 Log10 and −4.79 Log10 and 0.73 Log10 and −5.15 Log10 and −5.95 Log10 and −5.38 Log10.

What about the “Planktonic day 6 Δlog (individual animal)” value (listed as DAP) of the same molecule?
Its value is −5.72 Log10 and −4.79 Log10 and −2.46 Log10 and −5.15 Log10 and −5.95 Log10 and −5.38 Log10.

Which results are given for `Cc1c(CN(C)C(=O)/C=C/c2cnc3c(c2)CCC(=O)N3COP(=O)(O)O)oc2ccccc12` [Debio 1450, {6-[(1E)-3-{methyl [(3-methyl-1-benzofuran-2-yl)methyl]amino}-3-oxoprop-1-en-1-yl]-2-oxo-3,4-dihydro-1,8-naphthyridin-1 (2H)-yl} methyl dihydrogen phosphate]?
Cure rate (%): 50%; adherent bacteria reduction from baseline (mean±SD): 3.81±1.15 log 10 CFU/mL; Adherent Δlog (individual animal): −4.48 log 10 CFU/mL (2×) and −2.48 log 10 CFU/mL; Adherent Mean: −3.81 log 10 CFU/mL; day on which bactericidal effect (mean reduction of bacterial load by ≥3 Log10) on planktonic bacteria was exerted: 6 day; Planktonic day 3 Mean: −2.62 Log10; Planktonic day 6 Mean: −4.45 Log10; Planktonic day 9 Mean: −3.90 Log10; Planktonic day 6 Δlog (individual animal): −3.24 Log10 and −2.69 Log10 and −5.64 Log10 and −5.10 Log10 and −4.91 Log10 and −5.09 Log10; Planktonic day 3 Δlog (individual animal): −1.42 Log10 and −1.40 Log10 and −2.10 Log10 and −5.10 Log10 and −1.93 Log10 and −3.79 Log10; Planktonic day 9 Δlog (individual animal): −5.85 Log10 and −3.41 Log10 and −1.32 Log10 and −5.10 Log10 and −4.91 Log10 and −2.79 Log10

Which “Cure rate (%)” value does the source give for `CO[C@H]1/C=C/O[C@@]2(C)Oc3c(C)c(O)c4c(O)c(c(/C=N/N5CCN(C)CC5)c(O)c4c3C2=O)NC(=O)/C(C)=C\C=C\[C@H](C)[C@H](O)[C@@H](C)[C@@H](O)[C@@H](C)[C@H](OC(C)=O)[C@@H]1C` [Rifampicin] here?
The value was 100%.

And the “adherent bacteria reduction from baseline (mean±SD)” value?
Its value is 3.37±0 log 10 CFU/mL.

And the “Adherent Δlog (individual animal)” value?
Its value is −3.4 log 10 CFU/mL.

And the “Adherent Mean” value?
The value was −3.37 log 10 CFU/mL.

What about the “day on which bactericidal effect (mean reduction of bacterial load by ≥3 Log10) on planktonic bacteria was exerted” value of the same molecule?
Its value is 3 day.

What about the “Planktonic day 3 Mean” value of the same molecule?
The value was −4.53 Log10.

What about the “Planktonic day 6 Mean” value of the same molecule?
Its value is −4.53 Log10.

And the “Planktonic day 9 Mean” value?
The value was −4.53 Log10.

And the “Planktonic day 3 Δlog (individual animal)” value (listed as RIF)?
Its value is −4.08 Log10 and −6.73 Log10 and −3.5 Log10 and −3.4 Log10 and −4.9 Log10.

And the “Planktonic day 9 Δlog (individual animal)” value (listed as RIF)?
The value was −4.08 Log10 and −6.73 Log10 and −3.5 Log10 and −3.4 Log10 and −4.9 Log10.

And the “Planktonic day 6 Δlog (individual animal)” value (listed as RIF)?
The value was −4.08 Log10 and −6.73 Log10 and −3.5 Log10 and −3.4 Log10 and −4.9 Log10.
